“Also recorded” adds a separate entry of the source. Like-named read-outs stand apart in the source and are kept apart here.
Tests used:
[1] = tested on: phosphorylated and total AMPK, MAPK, EGFR, HER and S6 ribosomal protein; assay: Western blot of phosphorylated and total signalling proteins in breast cancer cells; type: cell-based
Method: (§1) MCF-7(HER2), SK-BR-3, MDA-MB-231 and MDA-MB-468 breast cancer cells are treated with different doses of 2-Methyl-2-[4-(3-methyl-2-oxo-8-quinolin-3-yl-2, 3-dihydro-imidazo[4,5-c]quinolin-1-yl)-phenyl]-propionitrile, also known as COMPOUND A, metformin or both agents in combination. Levels of phosphorylated and total AMPK, MAPK, EGFR, HER and S6 ribosomal protein are evaluated by western blot. Cell proliferation analyses are performed in triplicates using the WST-1 and crystal violet colorimetric assays.

[2] = tested on: MCF-7(HER2), SK-BR-3, MDA-MB-231 and MDA-MB-468 breast cancer cells; conditions: different doses, SK-BR-3, MDA-MB-231, MDA-MB-468, triplicates
Method: as §1

[3] = breast cancer cells, listed as metformin

Compound	levels of p-S6 ribosomal protein ([1]; breast cancer cells)	p-AKT ([1]; breast cancer cells)	p-MAPK / MAPK phosphorylation ([1]; breast cancer cells)	AMPK activation (p-AMPK) ([1]; breast cancer cells)	receptor tyrosine kinase (EGFR and HER2) expression ([1]; breast cancer cells)	AMPK activation (p-AMPK) [1, 3]	p-MAPK / MAPK phosphorylation [1, 3]	MARK pathway transactivation induced by COMPOUND A ([1]; metformin together with COMPOUND A)	cell proliferation / growth inhibition [2]	cell proliferation / growth inhibition ([2]; listed as metformin)
Cn1c(=O)n(-c2ccc(C(C)(C)C#N)cc2)c2c3cc(-c4cnc5ccccc5c4)ccc3ncc21 [Compound A, 2-Methyl-2-[4-(3-methyl-2-oxo-8-quinolin-3-yl-2,3-dihydro-imidazo[4,5-c]quinolin-1-yl)-phenyl]-propionitrile]	potently decreases	potently decreases	increases MAPK phosphorylation							
CN(C)C(=N)N=C(N)N [Metformin, dimethyldiguanide, reference compound]	decreasing the levels of p-S6 ribosomal protein			activates AMPK	reduced receptor tyrosine kinase (EGFR and HER2) expression	activates p-AMPK	reduces p-MAPK; also recorded: decreased p-MAPK	counteracts	dose-dependent growth inhibition	inhbitor of HER2 negative breast cancer cell proliferation

Reference: patent US20120059005A1, “COMBINATION OF (A) A PHOSPHOINOSITIDE 3-KINASE INHIBITOR AND (B) AN ANTIDIABETIC COMPOUND FOR USE IN THE TREATMENT OF PROLIFERATIVE DISEASES” (NOVARTIS AG, priority 2009, published 2012)
